{"source": "patent US9290788B2", "about": "“Device for determining or studying the state of stimulation of the natural defences of plants or portions of plants” (Institut National De La Recherche Agronomique, priority 2010, dated 2016)", "tested_on": "28 target genes (defense genes) in apple tree leaves", "assay": "Test 1: relative expression of the 28 defense genes (qPCR, ΔΔCt) in apple tree seedling leaves subjected to NDS treatments and abiotic stresses", "type": "in vivo, apple tree seedlings (Golden Delicious)", "settings": "for Relative expression of ANS / Relative expression of PAL / Relative expression of PR-1 / Relative expression of PR-2 / Relative expression of PR-4 / Relative expression of PR-5 / Relative expression of PR-8 / Relative expression of PR-14 / Relative expression of PR-15: vs water control", "key": {"[1]": {"settings": "+H2O2, J2, relative to water control"}, "[2]": {"settings": "+H2O2, J3, relative to water control"}, "[3]": {"settings": "+H2O2 (sprayed 24 hours after treatment), J2"}, "[4]": {"settings": "+H2O2 (sprayed 24 hours after treatment), J3"}, "[5]": {"settings": "−H2O2, J2, relative to water control"}, "[6]": {"settings": "−H2O2, J3, relative to water control"}}, "data": [{"smiles": "CC/C=C\\CC1C(=O)CCC1CC(=O)OC", "note": "(stereo not shown) [MeJA, methyl jasmonate]", "values": [{"measurement": "Relative expression ACCO (log base 2)", "setting": "[1]", "result": 3.48}, {"measurement": "Relative expression APOX (log base 2)", "setting": "[1]", "result": 1.87}, {"measurement": "Relative expression CAD (log base 2)", "setting": "[1]", "result": 0.70}, {"measurement": "Relative expression CHS (log base 2)", "setting": "[1]", "result": 3.73}, {"measurement": "Relative expression CSL (log base 2)", "setting": "[1]", "result": 2.26}, {"measurement": "Relative expression CalS (log base 2)", "setting": "[1]", "result": 0.48}, {"measurement": "Relative expression DFR (log base 2)", "setting": "[1]", "result": 3.43}, {"measurement": "Relative expression EDS1 (log base 2)", "setting": "[1]", "result": "−0.17"}, {"measurement": "Relative expression EIN3 (log base 2)", "setting": "[1]", "result": 2.54}, {"measurement": "Relative expression FPPS (log base 2)", "setting": "[1]", "result": "−0.07"}, {"measurement": "Relative expression Far (log base 2)", "setting": "[1]", "result": 0.74}, {"measurement": "Relative expression GST (log base 2)", "setting": "[1]", "result": 0.47}, {"measurement": "Relative expression HMGR (log base 2)", "setting": "[1]", "result": "−0.38"}, {"measurement": "Relative expression JAR (log base 2)", "setting": "[1]", "result": 0.73}, {"measurement": "Relative expression LOX2 (log base 2)", "setting": "[1]", "result": 1.51}, {"measurement": "Relative expression POX (log base 2)", "setting": "[1]", "result": 2.84}, {"measurement": "Relative expression PPO (log base 2)", "setting": "[1]", "result": 0.80}, {"measurement": "Relative expression Pect (log base 2)", "setting": "[1]", "result": "−2.02"}, {"measurement": "Relative expression WRKY (log base 2)", "setting": "[1]", "result": "−0.06"}, {"measurement": "Relative expression ACCO (log base 2)", "setting": "[2]", "result": 2.28}, {"measurement": "Relative expression APOX (log base 2)", "setting": "[2]", "result": 2.11}, {"measurement": "Relative expression CAD (log base 2)", "setting": "[2]", "result": 0.35}, {"measurement": "Relative expression CHS (log base 2)", "setting": "[2]", "result": 1.47}, {"measurement": "Relative expression CSL (log base 2)", "setting": "[2]", "result": 1.46}, {"measurement": "Relative expression CalS (log base 2)", "setting": "[2]", "result": 1.48}, {"measurement": "Relative expression DFR (log base 2)", "setting": "[2]", "result": 1.36}, {"measurement": "Relative expression EDS1 (log base 2)", "setting": "[2]", "result": 0.98}, {"measurement": "Relative expression EIN3 (log base 2)", "setting": "[2]", "result": 1.80}, {"measurement": "Relative expression FPPS (log base 2)", "setting": "[2]", "result": 0.43}, {"measurement": "Relative expression Far (log base 2)", "setting": "[2]", "result": 0.39}, {"measurement": "Relative expression GST (log base 2)", "setting": "[2]", "result": 0.87}, {"measurement": "Relative expression HMGR (log base 2)", "setting": "[2]", "result": 0.60}, {"measurement": "Relative expression JAR (log base 2)", "setting": "[2]", "result": 1.61}, {"measurement": "Relative expression LOX2 (log base 2)", "setting": "[2]", "result": 1.99}, {"measurement": "Relative expression POX (log base 2)", "setting": "[2]", "result": 4.29}, {"measurement": "Relative expression PPO (log base 2)", "setting": "[2]", "result": 1.23}, {"measurement": "Relative expression Pect (log base 2)", "setting": "[2]", "result": 2.16}, {"measurement": "Relative expression WRKY (log base 2)", "setting": "[2]", "result": 3.46}, {"measurement": "Relative expression of ANS", "setting": "[3]", "result": 3.29, "unit": "log2"}, {"measurement": "Relative expression of PAL", "setting": "[3]", "result": 3.36, "unit": "log2"}, {"measurement": "Relative expression of PR-1", "setting": "[3]", "result": 0.40, "unit": "log2"}, {"measurement": "Relative expression of PR-2", "setting": "[3]", "result": 3.89, "unit": "log2"}, {"measurement": "Relative expression of PR-4", "setting": "[3]", "result": 1.25, "unit": "log2"}, {"measurement": "Relative expression of PR-5", "setting": "[3]", "result": "−2.09", "unit": "log2"}, {"measurement": "Relative expression of PR-8", "setting": "[3]", "result": 1.41, "unit": "log2"}, {"measurement": "Relative expression of PR-14", "setting": "[3]", "result": "−0.64", "unit": "log2"}, {"measurement": "Relative expression of PR-15", "setting": "[3]", "result": 3.20, "unit": "log2"}, {"measurement": "Relative expression of ANS", "setting": "[4]", "result": 1.44, "unit": "log2"}, {"measurement": "Relative expression of PAL", "setting": "[4]", "result": 2.01, "unit": "log2"}, {"measurement": "Relative expression of PR-1", "setting": "[4]", "result": 2.84, "unit": "log2"}, {"measurement": "Relative expression of PR-2", "setting": "[4]", "result": 0.68, "unit": "log2"}, {"measurement": "Relative expression of PR-4", "setting": "[4]", "result": 2.84, "unit": "log2"}, {"measurement": "Relative expression of PR-5", "setting": "[4]", "result": "−1.22", "unit": "log2"}, {"measurement": "Relative expression of PR-8", "setting": "[4]", "result": 1.51, "unit": "log2"}, {"measurement": "Relative expression of PR-14", "setting": "[4]", "result": 3.68, "unit": "log2"}, {"measurement": "Relative expression of PR-15", "setting": "[4]", "result": 2.77, "unit": "log2"}, {"measurement": "Relative expression of ANS", "setting": "−H2O2, J2", "result": 2.31, "unit": "log2"}, {"measurement": "Relative expression of PAL", "setting": "−H2O2, J2", "result": 3.17, "unit": "log2"}, {"measurement": "Relative expression of PR-1", "setting": "−H2O2, J2", "result": 1.56, "unit": "log2"}, {"measurement": "Relative expression of PR-2", "setting": "−H2O2, J2", "result": 4.03, "unit": "log2"}, {"measurement": "Relative expression of PR-4", "setting": "−H2O2, J2", "result": 2.68, "unit": "log2"}, {"measurement": "Relative expression of PR-5", "setting": "−H2O2, J2", "result": "−0.59", "unit": "log2"}, {"measurement": "Relative expression of PR-8", "setting": "−H2O2, J2", "result": 1.85, "unit": "log2"}, {"measurement": "Relative expression of PR-14", "setting": "−H2O2, J2", "result": 3.45, "unit": "log2"}, {"measurement": "Relative expression of PR-15", "setting": "−H2O2, J2", "result": "−0.19", "unit": "log2"}, {"measurement": "Relative expression of ANS", "setting": "−H2O2, J3", "result": 1.58, "unit": "log2"}, {"measurement": "Relative expression of PAL", "setting": "−H2O2, J3", "result": 1.66, "unit": "log2"}, {"measurement": "Relative expression of PR-1", "setting": "−H2O2, J3", "result": 2.35, "unit": "log2"}, {"measurement": "Relative expression of PR-2", "setting": "−H2O2, J3", "result": 3.69, "unit": "log2"}, {"measurement": "Relative expression of PR-4", "setting": "−H2O2, J3", "result": 2.63, "unit": "log2"}, {"measurement": "Relative expression of PR-5", "setting": "−H2O2, J3", "result": 1.49, "unit": "log2"}, {"measurement": "Relative expression of PR-8", "setting": "−H2O2, J3", "result": 1.00, "unit": "log2"}, {"measurement": "Relative expression of PR-14", "setting": "−H2O2, J3", "result": 5.09, "unit": "log2"}, {"measurement": "Relative expression of PR-15", "setting": "−H2O2, J3", "result": 1.21, "unit": "log2"}, {"measurement": "Relative expression ACCO (log base 2)", "setting": "[5]", "result": 1.92}, {"measurement": "Relative expression APOX (log base 2)", "setting": "[5]", "result": "−3.00"}, {"measurement": "Relative expression CAD (log base 2)", "setting": "[5]", "result": 1.52}, {"measurement": "Relative expression CHS (log base 2)", "setting": "[5]", "result": 2.97}, {"measurement": "Relative expression CSL (log base 2)", "setting": "[5]", "result": 2.29}, {"measurement": "Relative expression CalS (log base 2)", "setting": "[5]", "result": 0.05}, {"measurement": "Relative expression DFR (log base 2)", "setting": "[5]", "result": 2.92}, {"measurement": "Relative expression EDS1 (log base 2)", "setting": "[5]", "result": 1.91}, {"measurement": "Relative expression EIN3 (log base 2)", "setting": "[5]", "result": 3.82}, {"measurement": "Relative expression FPPS (log base 2)", "setting": "[5]", "result": 0.00}, {"measurement": "Relative expression Far (log base 2)", "setting": "[5]", "result": 2.34}, {"measurement": "Relative expression GST (log base 2)", "setting": "[5]", "result": 1.00}, {"measurement": "Relative expression HMGR (log base 2)", "setting": "[5]", "result": 1.49}, {"measurement": "Relative expression JAR (log base 2)", "setting": "[5]", "result": 1.25}, {"measurement": "Relative expression LOX2 (log base 2)", "setting": "[5]", "result": 1.60}, {"measurement": "Relative expression POX (log base 2)", "setting": "[5]", "result": 0.66}, {"measurement": "Relative expression PPO (log base 2)", "setting": "[5]", "result": 1.28}, {"measurement": "Relative expression Pect (log base 2)", "setting": "[5]", "result": 0.98}, {"measurement": "Relative expression WRKY (log base 2)", "setting": "[5]", "result": 1.25}, {"measurement": "Relative expression ACCO (log base 2)", "setting": "[6]", "result": 1.96}, {"measurement": "Relative expression APOX (log base 2)", "setting": "[6]", "result": 0.95}, {"measurement": "Relative expression CAD (log base 2)", "setting": "[6]", "result": 0.01}, {"measurement": "Relative expression CHS (log base 2)", "setting": "[6]", "result": 1.22}, {"measurement": "Relative expression CSL (log base 2)", "setting": "[6]", "result": 1.81}, {"measurement": "Relative expression CalS (log base 2)", "setting": "[6]", "result": 1.14}, {"measurement": "Relative expression DFR (log base 2)", "setting": "[6]", "result": 1.55}, {"measurement": "Relative expression EDS1 (log base 2)", "setting": "[6]", "result": 1.22}, {"measurement": "Relative expression EIN3 (log base 2)", "setting": "[6]", "result": 1.22}, {"measurement": "Relative expression FPPS (log base 2)", "setting": "[6]", "result": 0.13}, {"measurement": "Relative expression Far (log base 2)", "setting": "[6]", "result": 1.51}, {"measurement": "Relative expression GST (log base 2)", "setting": "[6]", "result": "−0.15"}, {"measurement": "Relative expression HMGR (log base 2)", "setting": "[6]", "result": 1.16}, {"measurement": "Relative expression JAR (log base 2)", "setting": "[6]", "result": 0.63}, {"measurement": "Relative expression LOX2 (log base 2)", "setting": "[6]", "result": 1.45}, {"measurement": "Relative expression POX (log base 2)", "setting": "[6]", "result": 3.86}, {"measurement": "Relative expression PPO (log base 2)", "setting": "[6]", "result": 0.78}, {"measurement": "Relative expression Pect (log base 2)", "setting": "[6]", "result": 3.87}, {"measurement": "Relative expression WRKY (log base 2)", "setting": "[6]", "result": 0.85}]}]}
